Key:
[1] = test system: hippocampal CA1 synapses of APP/PS1 mice; experiment: Late long-term potentiation, field recordings in hippocampal slices; design: species or system mouse; details: for impaired late-LTP: APP/PS1 slices
[2] = test system: 5xFAD mice; experiment: Plasma NfL in 5xFAD mice (NF-light ELISA); format: in vivo, mouse; details: compared to saline-treated transgenic mice
Method: HCQ nano (poly(L-lysine succinylated)-HCQ, or PLS-HCQ) preparation: 2.5 mL of saline were added to each vial of lyophilized material on each dose day and vortexed briefly to mix. Fresh vials were prepared daily. Solution was pale yellow in color and was protecedt from light. Remaining material was discardedafter animals were successfully dosed each day. […] 100 mg/kg, i.p. injection 10 μL/g b.w.
TUDCA preparation: Dissolved in saline; treatment dosage 500 mg/kg; i.p. injection 10 μL/g b.w.
Animal management: Animals were housed in individual ventilated cages on standardized rodent bedding supplied by Rettenmaier. Each cage contained a maximum of five mice. The temperature in the keeping room was maintained between 20 to 24° C. and the relative humidity was maintained between 45 to 65%. Animals were housed under a constant light-cycle (12 hours light/dark). […]
The NF-light® (Neurofilament-light) ELISA 10-7001 CE from UmanDiagnostics was used for analysis. The following samples were analyzed: terminal CSF, terminal blood plasma as well as all 4 timepoints from the in vivo bleedings from 6 animals per groups (3 groups; 18 animals, 108 samples in total). Samples were diluted (1:3 for plasma, 1:35 for CSF) in assay buffer and analyzed according to the manufacturers protocol. CSF and in vivo samples are analyzed in single replicates only, due to limited sample volume. […]

[3] = WT and APP/PS1 before and after HCQ

SMILES: CCN(CCO)CCCC(C)Nc1ccnc2cc(Cl)ccc12 (centres unmarked) [HCQ, hydroxychloroquine]
- impaired late-LTP ([1]; 25 μM HCQ sulphate, bath-applied 60 min): partially rescued
- impaired late-LTP ([1]; 50 μM HCQ sulphate): fully rescued
- input-output (I/O) curves [1, 3]: did not show any significant differences
- paired pulse ratio (PPR) [1, 3]: did not show a significant difference
- L-LTP in wild type slices ([1]; wild type mice, 50 μM HCQ, vs untreated wild type): does not alter L-LTP
- peak in plasma NfL levels ([2]; 100 mg/kg i.p.): partially lowered

SMILES: C[C@H](CCC(=O)NCCS(=O)(=O)O)[C@H]1CC[C@H]2[C@@H]3[C@@H](O)C[C@@H]4C[C@H](O)CC[C@]4(C)[C@H]3CC[C@]12C [TUDCA, tauroursodeoxycholic acid]
- LTP in APP/PS1 mice ([1]; 100 μM TUDCA): no longer induced LTP
- peak plasma NfL levels ([2]; 500 mg/kg i.p.): partially lowered

Reference: US20240269128A1, “COMPOUNDS FOR TREATING OR PREVENTING ALZHEIMER'S DISEASE” (THE UNITED STATES OF AMERICA, as represented by the …, priority 2021, published 2024)
